Measurements reported in article PMC6274529, “Flavonoids-Rich Orthosiphon stamineus Extract as New Candidate for Angiotensin I-Converting Enzyme Inhibition: A Molecular Docking Study” (Molecules, 2016).
“And” between values parts separate entries of the source, which are not always exact repeats. Identical values can stand only once. Like-named read-outs stand apart in the source and are kept apart here.

How the values were obtained:
[1] = Chelation of zinc (II) ion by tetramethylmurexide reagent; type: physicochemical; details: hexamine/HCl buffer pH 5.0, mean ± SD
Procedure: Therefore, this extract was selected to study its chelation ability with zinc (II) ion. […]. Based on this standard curve, the amount of metal ions bound by the compound tested was evaluated. […].
Briefly, 0.01 M hexamine/HCl buffer was prepared at pH 5.0 with addition of 0.01 M KCl. Stock solution of captopril. […] A series of working sample solutions were prepared by diluting the stock solutions with hexamine/HCl buffer (0–5 mg/mL). ZnCl2 was prepared in the same buffer at concentration of 0.8 mM. Then, 1 mL of sample solutions was mixed with 1 mL ZnCl2 solution and 0.1 mL tetramethylmurexide at concentration of 1 mM. Absorbance was recorded at 462 nm and 530 nm and then the ratio of A462/A530 was calculated. Distilled deionized water was used instead of tetramethylmurexide reagent in control samples. A standard curve of absorbance ratio versus metal ions concentrations (0 to 3.2 mM) was prepared and the percentage of bound metal ions was calculated. Percentage of bond with Zn^2+ = 1 − (Concentration of free Zn^2+/Concentration of total Zn^2+) × 100(4)

[2] = target: T1, ACE enzyme (from rabbit lung) (Oryctolagus cuniculus, UniProt P12822); experiment: In vitro ACE inhibition activity (HA formation from HHL, HPLC-UV)
T1 sequence (P12822 34-1310): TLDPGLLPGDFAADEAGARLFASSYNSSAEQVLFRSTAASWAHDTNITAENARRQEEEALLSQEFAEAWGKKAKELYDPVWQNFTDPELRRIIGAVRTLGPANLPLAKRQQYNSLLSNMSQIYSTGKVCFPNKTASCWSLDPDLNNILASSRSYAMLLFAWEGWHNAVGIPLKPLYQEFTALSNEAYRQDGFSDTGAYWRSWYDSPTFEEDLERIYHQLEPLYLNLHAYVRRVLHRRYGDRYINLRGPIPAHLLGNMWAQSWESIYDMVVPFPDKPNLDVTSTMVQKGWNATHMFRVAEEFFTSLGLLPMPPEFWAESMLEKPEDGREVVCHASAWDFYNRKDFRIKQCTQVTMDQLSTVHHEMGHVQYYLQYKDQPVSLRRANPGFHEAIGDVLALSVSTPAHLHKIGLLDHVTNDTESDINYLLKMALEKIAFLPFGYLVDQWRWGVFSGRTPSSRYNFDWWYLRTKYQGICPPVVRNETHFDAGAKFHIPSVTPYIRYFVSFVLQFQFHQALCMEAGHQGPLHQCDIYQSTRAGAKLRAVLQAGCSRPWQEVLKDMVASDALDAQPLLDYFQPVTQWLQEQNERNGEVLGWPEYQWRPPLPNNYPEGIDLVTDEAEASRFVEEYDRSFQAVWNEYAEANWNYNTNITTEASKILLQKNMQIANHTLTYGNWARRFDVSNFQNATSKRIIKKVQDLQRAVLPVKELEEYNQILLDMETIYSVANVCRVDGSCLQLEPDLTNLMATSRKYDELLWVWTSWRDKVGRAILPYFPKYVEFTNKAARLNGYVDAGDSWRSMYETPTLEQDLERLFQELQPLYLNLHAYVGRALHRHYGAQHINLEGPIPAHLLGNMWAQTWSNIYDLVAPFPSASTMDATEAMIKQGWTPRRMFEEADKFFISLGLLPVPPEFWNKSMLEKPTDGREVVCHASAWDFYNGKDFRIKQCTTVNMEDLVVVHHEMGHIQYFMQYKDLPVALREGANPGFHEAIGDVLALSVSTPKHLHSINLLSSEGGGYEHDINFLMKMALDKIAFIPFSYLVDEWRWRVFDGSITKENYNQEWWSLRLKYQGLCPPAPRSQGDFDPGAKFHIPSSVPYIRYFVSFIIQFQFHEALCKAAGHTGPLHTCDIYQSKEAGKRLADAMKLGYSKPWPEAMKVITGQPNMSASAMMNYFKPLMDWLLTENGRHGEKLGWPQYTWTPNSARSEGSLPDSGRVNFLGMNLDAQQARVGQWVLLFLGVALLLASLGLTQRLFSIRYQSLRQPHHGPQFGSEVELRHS
Procedure: This method relies on determining hippuric acid (HA) formation from ACE-specific substrate hippuryl-histidyl-leucine (HHL) by the action of ACE enzyme, resulting in the removal of C-terminal dipeptide histidylleucine.
The high performance liquid chromatography (HPLC) was performed using an Agilent Technologies (Series 1200 infinity, Frankfurt, Germany) system. Separations were accomplished on a Zorbax Eclipse plus phenyl-hexyl (4.6 mm × 250 mm, 5 µm, Agilent) and the column temperature was maintained at 30 °C. Substrates of HA and HHL were detected at 228 nm. The flow rate was set at 0.6 mL/min and injection volume was 10 μL. The mobile phase consisted of 20% acetonitrile and 80% of 0.1% ammonium dihydrogen phosphate buffer was used in this analysis with 10 min separation time.
For substrate HHL hydrolysis catalyzed by purified rabbit ACE enzyme, the total reaction volume was 200 µL. Phosphate buffer (pH 8.3) was used to dilute the substrate HHL and rabbit lung ACE enzyme. […] The reaction mixtures were incubated for 2 h at 37 °C. The reaction was terminated by heating the samples at 100 °C in water bath, and then 800 µL of water was added to all samples, and they were analyzed by stated HPLC method.
HHL as substrate was prepared freshly in 10 mM phosphate buffer pH 8.3 and then sonicated for 30 min. […] Angiotensin converting enzyme (ACE) was prepared at 0.05 U/mL in phosphate buffer pH 8.3 containing 0.1% bovine serum albumin (BSA). Then, 50 µL of purified ACE enzyme and 20 µL extracts, reference compounds or captopril at different concentrations were added to 130 µL of HHL substrate. Control reaction mixture was contained 20 µL of 50% ethanol instead of extracts. All samples were incubated for 2 h at 37 °C. The reaction was stopped by heating the samples at 100 °C. All samples were analyzed by HPLC after adding 800 µL of water. ACE inhibition rate was calculated by the following equation: ACE inhibition activity of test substances (%) = [(HA concentration levels without test substances) − (HA concentration levels with test substances)/(HA concentration levels without test substances)] × 100 (3)

| Compound | Zn (II) chelating activity (percentage of bound Zn (II)) ([1]; at concentration of 4 mg/mL) | Zn (II) chelating activity (percentage of bound Zn (II)) ([1]; at concentration of 5 mg/mL) | IC50 ([2]; IC50 on in vitro ACE inhibitory assay, purified rabbit lung ACE, HHL substrate, 2 h at 37 °C, mean ± SD (n = 3)) | IC50 [2] [µM] |
| --- | --- | --- | --- | --- |
| C[C@H](CS)C(=O)N1CCC[C@H]1C(=O)O [Captopril, captopril] | 100% ± 1.59% | – | – | – |
| COc1ccc(-c2cc(=O)c3c(O)c(OC)c(OC)cc3o2)cc1O [EUP, eupatorin] | – | 56.03% ± 1.26% | 44.6 µM and 44.7 µM | – |
| O=C(/C=C/c1ccc(O)c(O)c1)O[C@H](Cc1ccc(O)c(O)c1)C(=O)O [RA, rosmarinic acid] | – | – | – | 52.2 |
| COc1ccc(-c2cc(=O)c3c(OC)c(OC)c(OC)cc3o2)cc1OC [SIN, sinensetin] | – | 6.71% ± 0.62% | – | 79.2 |
| COc1ccc(-c2cc(=O)c3c(OC)c(OC)c(OC)cc3o2)cc1O [TMF, 3′-hydroxy-5,6,7,4′-tetramethoxyflavone] | – | – | – | 77.9 |
